The values that follow come from paper PMC12538432 (The Journal of Biological Chemistry, 2025).

Usually half-life stands for how long it takes for the measured level to halve.

The target of one data set is CYP3A4 S119A (Homo sapiens, UniProt P08684, S119A). Description: biochemical.
Another data set addresses T1, WT CYP3A4 (Homo sapiens, UniProt P08684).
T1 construct: made in house
Description: Equilibrium spectral binding titration of WT CYP3A4. The following applies: for Spectral ligand type: WT CYP3A4, Soret band shift; for Spectral changes / low-to-high spin transition induced: WT CYP3A4, saturating ligand. The protocol:
(§1) Fitting was performed using SigmaPlot software (Grafiti LLC).

The target in a further data set is T2, CYP3A4 R212A (Homo sapiens, UniProt P08684, R212A).
T2 construct: made in house
T2 sequence (P08684 with tags, fused parts or gaps R212A): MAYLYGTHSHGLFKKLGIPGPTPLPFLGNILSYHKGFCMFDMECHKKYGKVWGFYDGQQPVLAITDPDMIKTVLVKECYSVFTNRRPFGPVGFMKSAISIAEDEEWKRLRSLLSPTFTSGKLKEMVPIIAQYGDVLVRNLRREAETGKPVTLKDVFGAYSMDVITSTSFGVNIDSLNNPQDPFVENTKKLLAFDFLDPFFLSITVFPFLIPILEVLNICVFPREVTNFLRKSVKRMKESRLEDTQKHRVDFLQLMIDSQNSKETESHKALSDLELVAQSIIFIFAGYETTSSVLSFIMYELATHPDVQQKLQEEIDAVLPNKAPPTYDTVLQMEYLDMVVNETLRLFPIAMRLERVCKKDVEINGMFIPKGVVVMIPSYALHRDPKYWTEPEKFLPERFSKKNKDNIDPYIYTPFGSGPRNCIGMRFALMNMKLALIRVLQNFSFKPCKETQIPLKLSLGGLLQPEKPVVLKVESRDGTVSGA
Description: Equilibrium spectral binding titration of CYP3A4 R212A mutant. As for the experimental part:
as §1

The conditions of data set [1]: upon intravenous and immediate-release oral administration ref 32; cited from earlier work.
For a further data set, the target named is T3, CYP3A4 (wild type) (Homo sapiens, UniProt P08684).
T3 construct: made in house
T3 sequence (P08684 with tags, fused parts or gaps): as the sequence (P08684 with tags, fused parts or gaps R212A) above, with A192R counted along it
The data set can be described thus: Equilibrium spectral binding titration of WT CYP3A4. Conditions: human, recombinant Δ3-22 truncated wild-type CYP3A4 protein, pH 7.4; WT CYP3A4, second of two binding sites; read-out: Kd2 (two-site binding fitting). As for the experimental part:
as §1

T1 sequence (P08684 with tags, fused parts or gaps): as the sequence (P08684 with tags, fused parts or gaps R212A) above, with A192R counted along it
CYP3A4 S119A, sequence (P08684 with tags, fused parts or gaps S119A): as the sequence (P08684 with tags, fused parts or gaps R212A) above, with S99A, A192R counted along it

Turning to `CCCCCc1cc(O)c2c(c1)OC(C)(C)[C@@H]1CCC(C)=C[C@@H]21` [THC, (−)-trans-Δ^9-tetrahydrocannabinol], the Kd worked out at 3000 ± 300 nM at CYP3A4 S119A, 1900 nM at WT CYP3A4 and 2800 ± 300 nM at CYP3A4 R212A. Moreover, the Spectral ligand type entry at WT CYP3A4 is listed as “type I ligand”. Also, the “Spectral changes / low-to-high spin transition induced” value on WT CYP3A4 is “nearly complete low-to-high spin transition”.
As to `C=C(C)[C@@H]1CCC(C)=C[C@H]1c1c(O)cc(CCCCC)cc1O` [CBD, cannabidiol], at WT CYP3A4, the Spectral ligand type entry is given as “type I spectral changes” and the “Spectral changes / low-to-high spin transition induced” value is on record as “nearly complete high-spin transition”. In addition, the Spectral ligand type result at WT CYP3A4 (listed as cannabidiol) was “type I ligands”.
As to `NC(=O)C(c1ccccc1)(c1ccccc1)[C@@H]1CCN(CCc2ccc3c(c2)CCO3)C1` [darifenacin], the half-life in data set [1] was 3 to 4 h. Also, on CYP3A4 (wild type), the Kd is 712000 nM. Moreover, the Spectral ligand type result on WT CYP3A4 is given as “type I ligand”. In addition, at WT CYP3A4 (WT CYP3A4, share of total absorbance change), the “Observed absorbance change during association to the high-affinity site” value is on record as about 70%.
Turning to `CCCCCc1cc(O)c2c(c1)OC(C)(C)c1ccc(C)cc1-2` [CBN, cannabinol], the entries for the “Spectral changes / low-to-high spin transition induced” value at WT CYP3A4 and on WT CYP3A4 (listed as cannabinol) were “only minor spectral changes” and “only negligible spectral changes”, respectively.
